What was measured:
[1] = system: A. brasiliensis; assay: Full AET challenge test; conditions: original spike 10^5-10^6 CFU/ml, 28 days at room temperature
[2] = system: C. albicans; assay: Full AET challenge test; conditions: original spike 10^5-10^6 CFU/ml, after 28 days
[3] = system: P. aeruginosa; assay: Full AET challenge test; conditions: original spike 10^5-10^6 CFU/ml, after 28 days
[4] = system: S. aureus; assay: Full AET challenge test; conditions: original spike 10^5-10^6 CFU/ml, after 28 days
[5] = system: E. coli; assay: Full AET challenge test; conditions: original spike 10^5-10^6 CFU/ml, after 28 days
[6] = system: M. luteus; assay: Full AET challenge test; conditions: original spike 10^5-10^6 CFU/ml, after 28 days
[7] = system: S. haemolyticus; assay: Microbial challenge test (Example 1); conditions: original spike 10^5-10^6 CFU/ml

CN[C@]1(c2ccccc2Cl)CCCCC1=O.Cl [S-ketamine hydrochloride, (S)-2-(2-chlorophenyl)-2-(methylamino)cyclohexanone hydrochloride]
Effect on the original spike (in words) [1]: some inhibitory activity
Effect on the original spike (in words) [2]: strong antimicrobial properties
Effect on the original spike (in words) [3]: strong antimicrobial properties
Effect on the original spike (in words) [4]: strong antimicrobial properties
Effect on the original spike (in words) [5]: strong antimicrobial properties
Effect on the original spike (in words) [6]: strong antimicrobial properties
Effect on the original spike (in words) [7]: strong antimicrobial properties

Reference: US20140274981A1, “PHARMACEUTICAL COMPOSITION OF S-KETAMINE HYDROCHLORIDE” (JANSSEN PHARMACEUTICA NV, priority 2013, published 2014)
